# Data: patent US20250154180A1, “CRK-LIKE (CRKL) ADAPTOR PROTEIN INHIBITORS AND METHODS OF MAKING AND USING THE SAME” (Rutgers, The State University of New Jersey, priority 2022, published 2025)
# Key:
# [1] = Mouse toxicity assays (serum ALT, AST, BUN, creatinine); type: in vivo, mice; conditions: mouse, in vivo
# Protocol: Three mice were treated in each group. Blood samples were collected from every mouse in pre-treatment and post-treatment (20 days), and serum was obtained for alanine aminotransferase (ALT, SGPT, FIG. 12A), aspartate aminotransferase (AST, SGOT, FIG. 12B), blood urea nitrogen (BUN, FIG. 12C), and creatinine (FIG. 12D) tests to monitor liver and kidney toxicity. The normal Reference Ranges for ALT is 17-77 IU/L; AST is 54-298 IU/L; BUN is 18.5-33.3 mg/dL; Cr is 0-0.40 mg/dL.
# Mouse toxicity assays—Blood was collected from the submandibular facial vein following IACUC guidelines (CMP, Houston Methodist Research Institute and Rutgers University) before and 20-day after the drug treatment. The Department of Veterinary Medicine & Surgery, MD Anderson Cancer Center, performed the clinical biochemistry and pharmacokinetics tests. Blood serum chemistry analysis included alanine transaminase (ALT), aspartate transaminase (AST), blood urea nitrogen (BUN), and creatinine level measurements.
# Alanine aminotransferase (ALT, SGPT), aspartate aminotransferase (AST, SGOT), blood urea nitrogen (BUN), and creatinine levels were examined to determine liver and kidney toxicity of Pomiferin treatments in vivo. […] Nevertheless, these changes have no physiological significance because ALT, AST and BUN levels in all mice were within normal mouse reference ranges. […]
# MDA-MB-468 cells [2] = assay: Annexin V/PI apoptosis, MDA-MB-468; type: cell-based; conditions: 10 uM, 24 hours
# Protocol: Annexin V/PI Staining—Experimental cells were collected, washed with 1×PBS, resuspended in the binding buffer, and stained with an Annexin V-FITC assay Kit (Millipore Sigma). The cells were incubated with 50 μg/ml Annexin V in 1× binding buffer at room temperature for 15 minutes, then 10 μg/ml propidium iodide for another 15 minutes and analyzed by flow cytometry (EPICS XL). Annexin V-positive/PI-negative cells were considered early apoptotic, cells with both Annexin V and PI-positive to be late apoptotic, and Annexin V negative but PI-positive to be “necrotic.” The percent of apoptosis was calculated as the sum of the percentages of both early and late apoptotic cells.
# To figure out the features of cytotoxic effects of Pomiferin on breast cancer cells. Pomiferin-treated breast cancer cells were stained with an Annexin V/PI kit and measured them with Flow Cytometry.
# Thermodynamic solubility = type: physicochemical; conditions: thermodynamic from solid
# Protocol: In this example, solubility measurement assays were performed using a phosphate buffer (also referred to as “PB”) system and a water system to evaluate thermodynamic solubility. The PB system was at a pH of 7.4 to mimic in vivo environments. For the PB system, the values were determined to be NC5: Thermodynamic Solubility pH=7.4<0.42 μg/mL; Compound III: Thermodynamic Solubility pH=7.4<0.48 μg/mL; and Compound I: Thermodynamic Solubility pH=7.4<0.48 μg/mL. Results for the water assay were as follows: NC5: Thermodynamic Solubility Water<0.42 μg/mL; Compound III: Thermodynamic Solubility Water<0.48 μg/mL; and Compound I: Thermodynamic Solubility Water<0.48 μg/mL.
# [3] = system: CrkL (phosphorylation at Y207 by Ab1); assay: AlphaScreen of Ab1 phosphorylation of CrkL at Y207; type: biochemical; conditions: positive hits defined as a 50% decrease in Alpha signal vs DMSO
# [4] = system: PBNK killing in BXPC3 cells; assay: Cr51 release assay, PBNK killing of BXPC3; type: cell-based; conditions: 1 uM overnight
# Protocol: In this example, activity of NC5 was evaluated for PBNK and CD147-CAR-NK killing in BXPC3 cells. PBNK or CD147-CAR-NK cells were incubated with 1 uM NC5 overnight, then cells were harvested for Cr51 release assay to check cell cytotoxicity. […] The star symbol indicates the significance of vehicle vs. NC5 of the indicated E:T ratios. *p<0.05, **p<0.01, n=3.
# MDA-MB-468 cells [5] = assay: MTT proliferation assay, MDA-MB-468; type: cell-based
# Protocol: (§1) MTT assay—The MTT assay was used to detect cell proliferation. Briefly, cells were plated in a 96-well plate at a density of 50,000 cells/well in 200 μl of culture medium with candidate drugs to be tested (DMSO as a negative control). The treated cells were incubated for four hours a 37° C. with a 5% CO2 incubator to allow dark crystals to form at the bottom of the wells. […] After aspirating the culture medium from each well, 100 μl of crystal dissolving solution was added to each well and incubated for 10 minutes at RT. The signal was quantified by measuring the absorbance in each sample at 570 nm using a microplate reader.
# Cell proliferation was first determined by MTT assay as confirmation. […] CrkL is known to mediate the activation of both Raf/ERK and PI3K pathways. So, proteins that relate to these two pathways were utilized.
# MDA-231-GFP-LUC cells = assay: MTT assay, MDA-231-GFP-LUC; type: cell-based; conditions: five M Pomiferin for three days
# Protocol: as §1
# To further test the inhibitory specificity of Pomiferin for specific breast cancer cell lines, The survival percentage was compared between different hematopoietic cancer cell lines and healthy PBMCs.
# [6] = system: PBNK cells killing activity towards SK-Hep1; assay: Cr51 release assay, PBNK killing of SK-Hep1; type: cell-based; conditions: 1 uM overnight
# Protocol: PBNK cells were incubated with 1 uM NC5 or Compound III overnight, then cells were harvested for Cr51 release assay to check cell cytotoxicity. […] The star symbol indicates the significance of vehicle control vs. NC5 of the indicated E:T ratios. *p<0.05, **p<0.01, n=3.
# HCC HepG2 cells = assay: MTT proliferation assay, HepG2; type: cell-based; conditions: 48 hours
# Protocol: MTT assay—The MTT assay was used to detect cell proliferation. Briefly, cells were plated in a 96-well plate at a density of 50,000 cells/well in 200 μl of culture medium with candidate drugs to be tested (DMSO as a negative control). The treated cells were incubated for four hours a 37° C. with a 5% CO2 incubator to allow dark crystals to form at the bottom of the wells. After culturing for 48 hours, […] of MTT reagent was added to each well and mixed gently for one minute. After aspirating the culture medium from each well, 100 μl of crystal dissolving solution was added to each well and incubated for 10 minutes at RT. The signal was quantified by measuring the absorbance in each sample at 570 nm using a microplate reader.
structure (smiles),measurement,setting,value
"CC(C)=CCc1c2c(c3occ(-c4ccc(O)c(O)c4)c(=O)c3c1O)C=CC(C)(C)O2 [Pomiferin, 3′,4′,5-Trihydroxy-6″,6″-dimethyl-6-(3-methylbut-2-en-1-yl)-6″H-pyrano[2″,3″:7,8]isoflavone]",damage to the liver and kidneys,[1],little to no damage to the liver and kidneys
same,percentage of apoptotic cells,MDA-MB-468 cells [2],significantly increased
same,solubility thermodynamic,"Thermodynamic solubility; pH 7.4, aqueous buffer",< 0.42 µg/mL
same,solubility thermodynamic,Thermodynamic solubility; water,< 0.42 µg/mL
same,AlphaScreen hit (inhibition of Crk phosphorylation),[3],identified hit
same,PBNK killing (Cr51 release),[4],increased
same,cell proliferation (MTT),"MDA-MB-468 cells [5]; 1 uM, 5 uM and 10 uM, 24 hours",significantly inhibited cell proliferation
same,cell proliferation (MTT),"MDA-MB-468 cells [5]; 2.5 μM, 48 hours, vs DMSO",inhibited cell proliferation
same,"sensitivity to Pomiferin (survival percentage, MTT)",MDA-231-GFP-LUC cells,most sensitive cell to Pomiferin treatment
same,PBNK cells killing activity (Cr51 release),[6],increased PBNK cells killing activity
same,concentration at which HepG2 cell proliferation starts to be significantly inhibited,HCC HepG2 cells,one
